Converted amounts (≈) assume the structure as drawn. “And” between values parts separate entries of the source, which are not always exact repeats. Equal values may be shown once. Each block holds one compound with its values, some of them ahead of it.
How the values were obtained:
[1] = biological target: T1, Porcine pancreatic elastase (Sus scrofa, UniProt P00772); assay: Anti-elastase assay (EnzCheck, fluorimetric); format: biochemical
T1 construct: purchased Molecular Probes
Protocol: The elastase inhibitory activity was assessed fluorimetrically using the EnzCheck® elastase assay kit (Molecular Probes, Laiden, Netherlands). A 1 mg/mL stock solution of the substrate (DQ elastin) was prepared in deionized water. Porcine pancreatic elastase stock solution was prepared in deionized water at 100 U/mL and dilutions were made in Tris–HCL buffer. Pre-incubation of 50 µL of different dilutions of the extract (inhibitor) with 100 µL of the enzyme was done for 15 min followed by the addition of the substrate (50 µL). Controls were prepared with buffer instead of extract. Fluorescence intensity was continuously measured for 20 min in a fluorescence microplate reader equipped with standard fluorescein filters (λex 505 nm, λem 515 nm). Subtraction of background fluorescence was done in no-enzyme wells. 1,10-Phenathrolinewas used as a standard elastase inhibitor. The IC50 is the concentration of the extract required to inhibit 50% of elastase activity.
The percentage of elastase inhibition(%)=(1-S/C)×100 where S is the corrected fluorescence of the extract samples and C is the corrected fluorescence of the control.

[2] = biological target: collagenase; assay: Anti-collagenase assay (fluorimetric, BODIPY-gelatin); format: biochemical
Protocol: The evaluation of collagenase inhibitory activity was performed fluorimetrically in a microplate reader. Briefly, the self-quenched BODIPY conjugate of gelatin (Type B) was used as a fluorogenic substrate to monitor the activity of collagenase (Biovision, CA, USA). Collagenase stock solution was prepared in 50 mM Tricine buffer at 0.8 U/mL and the substrate (BODIPY) was dissolved in Tricine buffer to 2 mM. One microliter of different concentrations of the extract (1, 10, 100, and 1000 µg/mL) was incubated with the 5 µL collagenase in buffer and 44 µL Tricine buffer for 15 min before adding the substrate. […] The reaction is initiated by mixing two µL of the substrate with the previous reaction mixture. Negative controls were prepared with the buffer. Fluorescence intensity was monitored (λex 490 nm, λem 520 nm, 515 nm cut-off) in a kinetic mode at 37 °C for 30–60 min.
The percentage of collagenase inhibition(%)=(1-S/C)×100 where S is the corrected fluorescence of the extract sample and C is the corrected fluorescence of the control.

[3] = DPPH radical scavenging activity
Protocol: The scavenging activity of the stable 2,2-diphenyl-1-picrylhydrazyl (DPPH) free radical by RHE was assessed according to the method reported by Boly et al.[112].

[4] = biological target: elastase enzyme; set-up: method as in doi:10.1517/13543776.3.8.1237; details: cited from earlier work
[5] = Cytotoxicity MTT assay; format: cell-based; details: human, WI-38 normal lung fibroblast cells, WI38 cell line, read-out: cytotoxic effect IC50
Protocol: The cytotoxicity of RHE extract was evaluated against human normal lung fibroblasts cell line WI-38 using MTT (3-(4,5-dimethylthiazol-2-yl)2,5-diphenyl tetrazolium bromide) assay[116] as recently described.

T1 sequence (P00772 27-266): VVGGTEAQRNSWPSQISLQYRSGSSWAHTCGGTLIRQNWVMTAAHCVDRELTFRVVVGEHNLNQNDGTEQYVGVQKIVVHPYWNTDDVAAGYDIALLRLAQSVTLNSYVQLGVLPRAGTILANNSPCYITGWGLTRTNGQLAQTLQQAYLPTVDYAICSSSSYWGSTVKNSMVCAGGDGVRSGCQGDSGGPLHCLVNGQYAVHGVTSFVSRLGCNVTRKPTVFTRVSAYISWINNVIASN

SMILES: c1cnc2c(c1)ccc1cccnc12 [1,10-Phenanthroline]
IC50 [1]: 142 µM
IC50 Collagenase [2]: 340.8 ± 17.3 µg/mL (≈ 1890 µM)

DPPH (IC50, µg/mL) [3]: 6.1 ± 0.2 µg/mL and 6.11 ± 0.2 µg/mL
SMILES: Cc1c(C)c2c(c(C)c1O)CCC(C)(C(=O)O)O2 (centres unmarked) [Trolox]

SMILES: CC1=CC(=O)[C@@H]2C[C@H]1C2(C)C [Verbenone]
IC50 of elastase enzyme inhibition [4]: picomolar range

SMILES: Nc1nc2c(ncn2COCCO)c(=O)[nH]1 [acyclovir]
IC50 [5]: 48.6 ± 3.2 µg/mL (≈ 216 µM)
